# Assays:
# [1] = 5% mass reduction temperature (TG-DTA); type: physicochemical
# Protocol: (5% Mass Reduction Temperature)
# The temperature, at which the mass of the sample is reduced by 5% by mass was measured using a Thermogravimeter-Differential Thermal Analyzer (TG-DTA) (manufactured by SII NanoTechnology Inc., “TG/DTA6200”) in an atmosphere of a nitrogen gas, at a heating rate (programming rate) of 10° C./min. The sample (cured product) was prepared as follows.
# That is, 3 parts by mass of Irgacure 184 (manufactured by BASF Japan Ltd.) as a photopolymerization initiator was added to 100 parts by mass of the total amount of the acrylate compound (polymerization component) shown in Table 1 or 3 weighed in a brown bottle, and the mixture was heated to 120° C. for dissolution to obtain a curable composition. An UV irradiation (500 mJ/cm^2) was repeated 4 times on the obtained curable composition to prepare the cured product.
# [2] = Solubility in various solvents; type: physicochemical; design: key to Solubility: A: Soluble; B: Some soluble, but turbid; C: Insoluble; settings: for Solubility: stirred at 50° C. for 30 minutes
# Protocol: The sample 0.3 g was weighed in a sample bottle, the solvent was added by 0.7 g (condition 1: solid content of 30% by mass) or 1.0 g (condition 2: solid content of 23% by mass), and each of the obtained mixed solutions was stirred at a temperature of 50° C. for 30 minutes by using a bioshaker (manufactured by TAITEC CORPORATION, “BR-43FH”). Each of the mixed solutions after stirring was evaluated according to the following criteria. The used solvents were methyl ethyl ketone (MEK), methyl isobuthyl ketone (MIBK), ethyl acetate, propylene glycol monomethyl ether acetate (PGMEA), toluene, dimethylformamide (DMF), or cyclohexanone.
# B: Some soluble, but turbid
"5% mass reduction temperature ([1]; cured product of the compound (UV cured, Irgacure 184), nitrogen, 10° C./min) [°C]","Solubility ([2]; Cyclohexanone, solid content of 30% by mass)","Solubility ([2]; DMF, solid content of 30% by mass)","Solubility ([2]; Ethyl acetate, solid content of 30% by mass)","Solubility ([2]; MEK, solid content of 30% by mass)","Solubility ([2]; MIBK, solid content of 30% by mass)","Solubility ([2]; PGMEA, solid content of 23% by mass)","Solubility ([2]; PGMEA, solid content of 30% by mass)","Solubility ([2]; Toluene, solid content of 30% by mass)",Solubility in various solvents (summary in words) ([2]; summary of Table 2),melting point [°C],5% mass reduction temperature ([1]; compound as obtained) [°C],Structure (SMILES)
382,A,A,A,A,A,A,B,A,high solubility in various solvents,120,–,"C=CC(=O)OCCCC1(CCCOC(=O)C=C)c2cc(-c3ccc4ccccc4c3)ccc2-c2ccc(-c3ccc4ccccc4c3)cc21 [DNPOA, 9,9-bis(3-acryloyloxypropyl)-2,7-di(2-naphthyl)fluorene]"
–,–,–,–,–,–,–,–,–,–,–,390,"COC(=O)CCC1(CCC(=O)OC)c2cc(-c3ccc4ccccc4c3)ccc2-c2ccc(-c3ccc4ccccc4c3)cc21 [DNFDP-m, 9,9-bis(2-methoxycarbonylethyl)-2,7-di(2-naphthyl)fluorene]"

# Source: patent US20230091908A1, “FLUORENE DERIVATIVE, METHOD FOR PRODUCING SAME, AND APPLICATION OF SAME” (Osaka Gas Chemicals Co., Ltd., priority 2019, published 2023)
